Measurements: a melting point compilation (Tetko et al.; mined from patent text by program, amines drawn as free bases though some values may be those of a salt)

Row | SMILES | melting point
1 | Cc1cc(CNc2cccc3c2C(=O)N(C2CCC(=O)NC2=O)C3=O)oc1C (stereo not drawn) | 127 to 129 °C
2 | O=C(NC(c1ccccc1)c1ccccc1)N1CCC(C(=O)O)(c2ccccc2)CC1 | 208 °C
3 | CC(C)(C)[Si](C)(C)OC1CN(c2ccc([N+](=O)[O-])cc2F)C1 | 98.5 to 99.5 °C
4 | Cc1cc(Cl)cc(Cl)c1CNc1c(NC(C)(C)C)c(=O)c1=O | 264 to 268 °C
5 | CC(=O)Nc1ccc(-n2ccnc2S(=O)Cc2ccccc2N2CCOCC2)nc1 (stereo not drawn) | 207 to 209 °C
6 | CC(C)(C)OC(=O)NC1C(=O)N2C(C(=O)OCc3ccc([N+](=O)[O-])cc3)=C(S)SCC12 (mixture of isomers) | 170 °C
7 | Cc1oc(-c2ccccc2)nc1COc1ccc(Cn2cc(CCC(=O)O)c(-c3ccccn3)c2)cc1 | 155 to 156 °C
8 | CC1CC(Nc2nnc(-c3cccc(Oc4cccc(C(F)(F)F)c4)c3)s2)CC(C)(C)C1 (stereo not drawn) | 101 to 102 °C
9 | CC(Oc1ccc(Oc2ccc(Cl)cc2Cl)cc1)C(=O)N1CCCO1 (stereo not drawn) | 115 to 118 °C
10 | CC1(C2OCCO2)C=CC(C#N)=CC1 (stereo not drawn) | 70 °C
11 | O=C(Nc1ccc(-n2nc(C(F)(F)F)cc2OC(F)F)cc1)c1ccccc1F | 130 to 131 °C
12 | ICCCCCCOc1ccc(C2=C(c3ccccc3)CCCc3cc(OC4CCCCO4)ccc32)cc1 (stereo not drawn) | 108 to 110 °C
13 | CC(=O)Nc1nc(N(C(C)=O)C(C)=O)c(CC=O)c(=O)[nH]1 | 169 to 170 °C
14 | CCCCOc1nsnc1S(C)(=O)=O | 39 to 40 °C
15 | COc1ccc(NC(N)=S)nc1 | 131 to 135 °C
16 | CCOC(=O)CC1NC(=O)c2ccccc21 (stereo not drawn) | 116 to 118 °C
17 | CCC(Cl)C(=O)NC(C)=O (stereo not drawn) | 51 to 53 °C
18 | CC(=O)Nc1nc(C)c(S(=O)(=O)N(C)CCO)s1 | 189 °C
19 | CCOC(=O)/C=C(C)/C(F)=C/C=C(C)/C=C/c1c(C)cc(C)c(Cl)c1C | 100 to 104 °C
20 | O=c1[nH]c2ccccc2n1C1CCN(CCCOc2ccc(F)cc2Cl)CC1 | 149 to 150 °C
21 | CCNc1nc2ccc(COc3cccc(CN4CCCCC4)c3)cc2o1 | 105 to 106 °C
22 | COC(=O)c1c(Br)c(F)cc2[nH]ncc12 | 169 to 171 °C
23 | CCCCCCCC1CC(C(=O)O)C(=O)O1 (stereo not drawn) | 51 to 54 °C
24 | Cc1c(-c2ccncc2)[nH]c(-c2ccncc2)c1C=O | 278 to 280 °C
25 | COc1ccc(Cc2cnc(-c3ccccc3)c(-c3ccccc3)n2)cc1 | 102 to 103 °C

Row | SMILES | melting point
26 | O=C(NC1CCCCC1)NC1CCN(CCc2c[nH]c3ccccc23)CC1 | 204 °C
27 | Cc1nc(-c2cc3cccc(OC[C@@H](O)CN4CCC(c5ccc6ccccc6c5)CC4)c3o2)no1 | 169 to 170 °C
28 | O=c1c2ccc(F)cc2oc2ccc(C(F)(F)F)cc12 | 140 to 142 °C
29 | C=CCn1c(=O)c(C(=O)OCC)c(N2CCCC2)c2ccc(C)nc21 | 97 to 103 °C
30 | O=C1OCCC1Oc1ccc(C(F)(F)F)cc1[N+](=O)[O-] (stereo not drawn) | 128 to 129 °C
31 | O=C(O)c1cc(Br)c2cccnc2c1O | 244 to 246 °C
32 | Cc1ccc(S(=O)(=O)N2[C@@H](C(=N)NO)CC[C@H]2c2ccc(F)cc2)cc1 (racemic) | 217 °C
33 | [N-]=[N+]=NCc1ccc2nc[nH]c2c1 | 110 to 114 °C
34 | Cc1nc(N2CCN(Cc3cccc(C(=O)O)c3)C2=O)sc1C(=O)NCc1ccccc1 | 120 to 123 °C
35 | CC(C)N1C(=O)c2ccccc2N(C(=O)C(C)(C)C)S1(=O)=O | 97.5 to 99.5 °C
36 | CC(C)=CC(=O)N(C)c1cccc(Br)c1 | 92 to 94 °C
37 | CC12CCC(=O)NC1CCc1cc(-c3cnc4ccccc4c3)ccc12 (single isomer, unassigned; (+)) | 265 to 266 °C
38 | COc1ccc(C(=O)c2csc(S(N)(=O)=O)c2)cc1 | 173 to 175 °C
39 | COC(=O)C1Cc2ccc([N+](=O)[O-])cc2CN1 (stereo not drawn) | 133 to 135 °C
40 | Cc1cc2c(=O)n(CCN(Cc3ccc4c(c3)NC(=O)C(C)(C)C(=O)N4CC3CC3)Cc3cccnc3C)ccc2o1 | 138 to 143 °C
41 | CC(C)c1ncc(CCCOc2nn(C)cc2CC(=O)O)c(Oc2ccc(Cl)cc2Cl)n1 | 107 to 108 °C
42 | Cc1cc2c(cc1Cl)[nH]c1c(C(=O)O)cccc12 | 310 °C
43 | Cc1cc(C)n(-c2ccc(N3CCOCC3)nn2)n1 | 119 to 121 °C
44 | Cc1noc(NS(=O)(=O)c2ccccc2-c2ccc(-c3ncco3)cc2CN(C)C(=O)c2ccccc2Cl)c1C | 125 to 135 °C
45 | CN(C=O)CC1(N2CCCCC2)CCCCC1 | 94 °C
46 | Cc1ccc(-c2nnc(N3CCC(=O)CC3)nc2-c2ccc(C)cc2)cc1 | 197 to 199 °C
47 | C=C(C)C(=O)Oc1ccc2ccc(O)c(-n3nc4ccccc4n3)c2c1 | 167 to 168 °C
48 | Cc1ccccc1-c1ccc(C(=O)N2Cc3ccc(C(=O)NCCc4ccc(O)cc4)n3Cc3ccccc32)cc1C | 129 to 131 °C
49 | COC(=S)c1cc(C)cc(C)c1 | 46 °C
50 | COc1ccc(S(=O)(=O)N(Cc2cccnc2)c2c(C(=O)O)cnc3snc(C)c23)cc1 | 234 to 236 °C

Row | SMILES | melting point
51 | COC(=O)c1ccc(C(=O)N(C)C)cc1 | 107 °C
52 | COc1cc2cc(CO)c(CO)c(-c3ccnc(Nc4ccccc4CCCO)c3)c2cc1OC | 156 to 158 °C
53 | Cn1c(C=O)cc2ccccc21 | 83 °C
54 | C=Cc1cc(OP(=O)(O)O)cc2nc(-c3ccc(OP(=O)(O)O)c(F)c3)oc12 | > 180 °C
55 | NS(=O)(=O)c1ccc(-n2nc(C(F)(F)F)cc2-c2ccc(-c3cscn3)c(O)c2)cc1F | 224 to 226 °C
56 | COCC#Cc1ncn2c1CN(C)C(=O)c1ccccc1-2 | 114 to 115 °C
57 | COc1ccc(C=NO)cc1OCCCCCc1ccccc1 | 65 to 67 °C
58 | CC(CNS(=O)(=O)C(C)C)c1ccc(NC(=O)CCl)cc1 (stereo not drawn) | 138 °C
59 | Cc1cc(=O)c2ccc(OCCCN3CCC(NC(=O)Cc4ccccc4)CC3)cc2o1 | 172 to 173 °C
60 | C[C@@H](CN1CCc2ccc3c(c21)CCS3)NC(=O)OC(C)(C)C | 170 to 172 °C
61 | CCNC(=O)[C@H](C)C[C@H](O)[C@H](CC1CCCCC1)NC(=O)[C@H](Cc1cscn1)NC(=O)OC(C)(C)C | 179 to 181 °C
62 | O=C(CC(=O)C(F)(F)F)Nc1cc(-c2cccs2)n[nH]1 | 259 to 261 °C
63 | CN(Cc1ccc(NC(=O)C2=Cc3cc(-c4ccc5c(c4)OCCO5)ccc3S(=O)(=O)CC2)cc1)C1CCOCC1 | 248 to 251 °C
64 | CCc1cc(Cl)c(NC(C)=O)c(Cl)n1 | 142 °C
65 | O=C(NC1(C2CC2)CC1)c1c(NC(=O)c2cc(C(F)(F)F)nn2-c2ncccc2Cl)c(Cl)cc2cn[nH]c12 | > 250 °C
66 | CCNc1c(C(=O)OCC)c(C)nc(OCC)c1[N+](=O)[O-] | 40 to 42 °C
67 | Cc1c(C#N)ccc2nc(N)nc(N)c12 | > 270 °C
68 | Nc1c(N(CC(=O)O)Cc2ccccc2)c(=O)c1=O | 177 to 179 °C
69 | CCOC(=O)C1=C(COCc2ccc(CN(C)C)s2)NC(C)=C(C(=O)OC)C1c1ccccc1Cl (stereo not drawn) | 81 to 83 °C
70 | Cc1ccc(S(=O)(=O)NC(=O)OCCc2ccc(-n3c(C(C)C)nc4cc(C(=O)N(C)C)c(Cl)cc43)cc2)cc1 | 173 to 176 °C
71 | CCOC(=O)C(C)(C)C(O)C(c1ccc(Cl)cc1)n1ccnc1 (stereo not drawn) | 120 to 124 °C
72 | O=C(N[C@@H](Cc1ccccc1)C(=O)Oc1cc(Cl)c(Cl)cc1Cl)OCc1ccccc1 | 139 to 140 °C
73 | CNC(=O)c1[nH]c(C(C)(C)C)cc1NC(=O)Nc1ccc(C)cc1 | 164 to 166 °C
74 | CC(C)(C)c1ccc2sc3cc(C#N)ccc3c(=O)c2c1 | 181 to 184 °C
75 | CN1C(=O)CC[C@]2(C)c3ccc(-c4cccc([N+](=O)[O-])c4)cc3CC[C@@H]12 | 181 to 183 °C

Row | SMILES | melting point
76 | Cc1ccc(Cl)c(C2CCc3c(C)cnnc3C2)c1 (stereo not drawn) | 65 to 70 °C
77 | NC(=O)c1ccc(CCCOCCCCCCBr)cc1 | 79 to 82 °C
78 | CCC(=C[N+](=O)[O-])NCc1ccc(Cl)nc1 | 95 to 98 °C
79 | N#Cc1cnn(-c2ccc(OC(F)(F)F)cc2Cl)c1Br | 83 °C
80 | COc1cc2cc(C(=O)N3CC(CCl)c4c3cc(NC(=O)OCc3ccc([N+](=O)[O-])cc3)c3ccccc43)[nH]c2c(OC)c1OC (stereo not drawn) | 191 to 192 °C
81 | CCC(CC(Cc1cccc2ccccc12)C(=O)N[C@@H](Cc1c[nH]cn1)C(=O)N[C@H](C=NNC(N)=O)CC(C)C)c1ccccc1 (stereo partly drawn) | 105 to 109 °C
82 | CC(C)(C)C(=O)Nc1ncc(Cl)cc1C=O | 169 to 171 °C
83 | OCc1ncn(CCCc2ccc(OCc3coc(/C=C/c4ccccc4)n3)cc2)c1CO | 146 to 148 °C
84 | COC(=O)c1cc2c(s1)[C@@H](N1CCCCC1=O)[C@H](OCc1ccccc1)C(C)(C)O2 (relative stereo) | 144 to 145 °C
85 | COc1ccccc1C(=O)c1ccc(Cl)nc1 | 46 to 47 °C
86 | CC(=O)NS(=O)(=O)c1ccc(-n2sc3ccccc3c2=O)cc1 | 254 to 255 °C
87 | Cn1cccc1-c1nsc2ccc(-n3c(=O)cc(C(F)(F)F)[nH]c3=O)cc12 | 125 to 130 °C
88 | NC(Cc1cc2nccnc2cc1CP(=O)(O)O)C(=O)O (stereo not drawn) | 250 °C
89 | CC(Cc1c[nH]c2ccccc12)(NC(=O)OC1CCCCC1Cl)C(=O)NCCc1ccccc1 (stereo not drawn) | 69 to 78 °C
90 | Nc1c(CCO)cc(Cl)cc1C(O)c1ccccc1 (stereo not drawn) | 130 to 132 °C
91 | CN(C)Cc1cnn(C)c1-c1ccc(Cl)cc1C(O)c1ccccc1F (stereo not drawn) | 125 to 127 °C
92 | O=C(Nc1ccc([N+](=O)[O-])cc1)C(=O)N1CCC(Cc2ccccc2)CC1 | 162 to 165 °C
93 | Cc1cccc(-c2nc3cccnn3c2-c2ccnc(NC3CCCCC3)c2)c1 | 169 to 170 °C
94 | COC(=O)c1cc(=O)c2ccc(OCC(O)COc3cccc(O)c3C(C)=O)cc2[nH]1 (stereo not drawn) | 192 to 194 °C
95 | O=C(O)C/C(C(=O)O)=C(\CCCCCCCCCCCCCCCCOS(=O)(=O)O)C(=O)O | 63 to 65 °C
96 | CCN1CCNC(=O)c2ccc(Nc3ncc(Cl)c(Nc4ccccc4OCCN4CCOCC4)n3)cc21 | 223 to 225 °C
97 | COc1ccc(C2Cc3cc(C(F)(F)F)ccc3NC(=O)C2COS(=O)(=O)c2ccc(C)cc2)cc1 (stereo not drawn) | 170 to 172 °C
98 | CCC(=O)[C@@H](NC(=O)OCc1ccccc1)C(C)C | 49 to 50 °C
